For this assay, the target named is HCV NS3 serine protease (Hepatitis C virus genotype 1a, UniProt P27958). Kind of assay: biochemical. Conditions: Ki from rate vs. [inhibitor] plots, Morrison tight binding competitive inhibition fit; with or without NS4A; 30 C, pH 7.8. The procedure:
Peptides EDVVabuCSMSY (Abu designates—aminobutyric acid), […], […] and EDVV AbuC-p-nitroanilide was purchased from AnaSpec Inc. (San Jose, Calif.).
Cleavage reactions were quenched by the addition of an equal volume of a mixture of 10% TFA: acetonitrile (1:1) and activity was assessed on a reversed phase HPLC column (Rainin C18 Microsorb-MV, […], 4.6×250 mm; 0-50% acetonitrile, 0.1% TFA@3.33% min) using a Hewlett Packard 1050 instrument with auto-injection and diode array detection at 210 nm and 280 nm (where appropriate). Peptide elution fragments were collected and identified by mass spectrometry and N-terminal sequence analysis. Fragment identity and concentration was further verified by authentic, synthesized products. Initial rates of cleavage were determined at <20% substrate conversion and catalytic parameters were determined assuming Michaelis-Menten kinetics using the MultiFit program (Day Computing, Cambridge, Mass.).
Spectrophotometric assays were run in a 96-well microtiter plate at 30 C, using a SpectraMax 250 reader (Molecular Devices, Sunnyvale, Calif.) with kinetic capability. Cleavage of EDVV AbuC-p-nitroanilide (5A-pNA) substrate was performed with or without NS4A in the same buffer used for HPLC assays at 30 C, and pNA release was monitored at 405 nm. The extinction coefficient of p-nitroaniline is independent of pH at values of 5.5. and above [Tuppy, H., et al., Hoppe-Seyler's Z. Physiol. Chem., 329, pp. 278-288 (1962)]; Raybuck and Luong, unpublished observations).
Kinetic constants for the rapid equilibrium ordered bisubstrate reaction were determined from rate vs. [4A], [EDVV Abuc-pNa]data by non-linear least squares fitting to equation 1 [Morrison, J. F. Biochim. Biophys. Acta., 185, pp. 269-286 (1969)] as described in the text. Kii and Kis valkues for peptidyl inhibitors were determined from rate vs. [inhibitor], [substrate] data and fitting to the equation for mixed inhibition:
rate=Vmax[S]/{Km(1+[I]/Kis0+[S](1+[I]/Kii)}
The commercial program KinetAsyst (State College, Pa.) was used for both procedures. Ki values were calculated from rate vs. [inhibitor] plots by a nonlinear least squares fit of the data to the equation of Morrison for tight binding competitive inhibition [Morrison, J. F. Biochim. Biophys. Acta., 185, pp. 269-286 (1969)]. The KineTic program (BioKin Ltd) was used for this procedure.
Ki values are express in μM. Category “A” indicates <1 μM inhibition; category “B” indicates 1-100 μM inhibition; category “C” indicates >100 μM.
Sequence of HCV NS3 serine protease (P27958 1027-1208): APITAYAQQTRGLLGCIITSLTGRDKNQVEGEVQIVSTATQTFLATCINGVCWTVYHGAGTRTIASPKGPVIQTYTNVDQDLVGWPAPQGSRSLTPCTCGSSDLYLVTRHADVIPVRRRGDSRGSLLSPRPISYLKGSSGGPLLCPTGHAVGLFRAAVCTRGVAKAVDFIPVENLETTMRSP
Usually Ki stands for a measure of affinity in units of concentration, obtained from inhibition or displacement. As for `CCC(C=O)NC(=O)c1cc(OCc2ccccc2)ccc1N(C)C(=O)C(NC(=O)C(NC(=O)c1cnccn1)C(C)C)C(C)C` (stereo not shown) [Compound 103], the inhibition constant (Ki) lay within 1 to 100 µM.
The result for `CCC(C=O)NC(=O)c1cc(OCc2ccccc2)ccc1NC(=O)C(NC(=O)C(NC(=O)c1cnccn1)C(C)C)C(C)C` (stereo not shown) [Compound 101] reads 1 to 100 µM; that for `CCC(C=O)NC(=O)c1cc(OCc2ccccc2)ccc1NC(=O)C(NC(=O)c1c(O)ccc2ccccc12)C(C)C` (stereo not shown) [Compound 104], 1 to 100 µM.
The result for `CCC(C=O)NC(=O)c1cc(OCc2ccc(Cl)c(Cl)c2)ccc1NC(=O)C(NC(=O)C(NC(=O)c1cnccn1)C(C)C)C(C)C` (stereo not shown) [Compound 107] reads 1 to 100 µM.

For the origin of these results see US20110112114A1, “INHIBITORS OF SERINE PROTEASES, PARTICULARLY HEPATITIS C VIRUS NS3 PROTEASE” (priority 1999, published 2011).
